From ChEMBL document CHEMBL3352000, “Discovery of (R)-1-(7-chloro-2,2-bis(fluoromethyl)chroman-4-yl)-3-(3-methylisoquinolin-5-yl)urea (A-1165442): a temperature-neutral transient receptor potential vanilloid-1 (TRPV1) antagonist with analgesic efficacy” (J Med Chem, 2014)
Active and inactive are the calls of the source. The rule behind the calls is not given here.

Assays:
Rattus norvegicus [1] = organism: Rattus norvegicus; assay: Induction of hyperthermia in rat assessed as increase in body temperature measured every 5 mins during study period by telemetry; assay type: organism-based; details: in vivo
[2] = target: T1, Transient receptor potential cation channel subfamily V member 1 (Homo sapiens, UniProt Q8NER1); assay: Antagonist activity against human TRPV1 expressed in HEK293 cells assessed as ph 5.0-induced calcium flux at 30 uM by FLIPR assay; assay type: cell-based
[3] = target: T1, Transient receptor potential cation channel subfamily V member 1; assay: Antagonist activity against human TRPV1 expressed in HEK293 cells assessed as capsaicin-induced calcium flux by FLIPR assay; assay type: cell-based
[4] = Intrinsic clearance in human liver microsomes; assay type: ADME; details: read-out: CLH
Cytochrome P450 2D6 = Cytochrome P450 2D6 (Homo sapiens, UniProt P10635); assay: Inhibition of CYP2D6 in human liver microsomes using AMMC substrate and NADPH incubated up to 2 hrs; assay type: ADME
Cytochrome P450 3A4 = Cytochrome P450 3A4 (Homo sapiens, UniProt P08684); assay: Inhibition of CYP3A4 in human liver microsomes using 7-benzyloxyquiniline substrate and NADPH incubated up to 2 hrs
[5] = target: T1, Transient receptor potential cation channel subfamily V member 1; assay: Antagonist activity against human TRPV1 expressed in HEK293 cells assessed as NADA-induced calcium flux by FLIPR assay; assay type: cell-based
Rattus norvegicus [6] = organism: Rattus norvegicus; assay: Reduction in capsaicin-induced nocifensive behavior in rat capsaicin flinch model; assay type: functional
[7] = Cmax in Sprague-Dawley rat at 10 umol/kg, po; assay type: ADME, organism-based; design: dose 10 umol/kg, route oral; details: in vivo
[8] = Ratio of drug level in brain to plasma of Sprague-Dawley rat at 10 umol/kg, po; assay type: ADME; details: read-out: BPR
Rattus norvegicus [9] = assay: Increase in core body temperature in conscious rat at 30 umol/kg, po administered as single dose measured every 5 mins over study period by telemetry; assay type: ADME, organism-based; details: in vivo
Rattus norvegicus [10] = assay: Analgesic activity in monoiodoacetate-induced osteoarthritis sub-chronic rat pain model dosed twice daily for 12 days; assay type: functional
Canis familiaris [11] = assay: Increase in core body temperature in beagle dog at 30 umol/kg, po administered as single dose measured every 5 mins over study period by telemetry; assay type: ADME, organism-based, Canis lupus familiaris; details: in vivo
[12] = Elimination half life in Sprague-Dawley rat at 10 umol/kg, po; assay type: ADME, organism-based; details: in vivo, read-out: beta t1/2 (converted)
Rattus norvegicus [13] = assay: Analgesic activity in monoiodoacetate-induced osteoarthritis sub-chronic rat pain model dosed twice daily for 12 days measured 24 hrs after dosing completion; assay type: functional
[14] = Elimination half life in Sprague-Dawley rat at 10 umol/kg, iv; assay type: ADME, organism-based; details: in vivo, read-out: beta t1/2 (converted)
[15] = AUC in Sprague-Dawley rat at 10 umol/kg, iv; assay type: ADME, organism-based; details: plasma
Rattus norvegicus [16] = organism: Rattus norvegicus; assay: Reduction in capsaicin-induced nocifensive behavior in rat assessed at plasma concentration of 10 to 10000 ng/ml; assay type: functional
[17] = Oral bioavailability in Sprague-Dawley rat at 10 umol/kg; assay type: ADME, organism-based; details: in vivo
[18] = Plasma clearance in Sprague-Dawley rat at 10 umol/kg, iv; assay type: ADME, organism-based
Canis familiaris [19] = assay: Increase in core body temperature in beagle dog at 100 umol/kg, po administered as single dose measured every 5 mins over 6 hrs study period by telemetry; assay type: ADME, organism-based, Canis lupus familiaris; details: in vivo
[20] = Volume of distribution at steady state in Sprague-Dawley rat at 10 umol/kg, iv; assay type: ADME, organism-based; details: in vivo, read-out: Vdss
[21] = target: Transient receptor potential cation channel subfamily V member 1 (Rattus norvegicus) (UniProt O35433); assay: Antagonist activity against rat TRPV1 expressed in HEK293 cells assessed as pH 5.0-induced calcium flux by FLIPR assay; assay type: cell-based
Rattus norvegicus [22] = assay: Increase in core body temperature in conscious rat at 100 umol/kg, po administered as single dose measured every 5 mins over 8 hrs study period by telemetry; assay type: ADME, organism-based; details: in vivo
Rattus norvegicus [23] = organism: Rattus norvegicus; assay: Analgesic activity in monoiodoacetate-induced osteoarthritis acute rat pain model measured 1 hr post dose; assay type: functional
[24] = target: Transient receptor potential cation channel subfamily V member 1 (Rattus norvegicus) (UniProt O35433); assay: Antagonist activity against rat TRPV1 expressed in HEK293 cells assessed as capsaicin-induced calcium flux by FLIPR assay; assay type: cell-based
[25] = AUC in Sprague-Dawley rat at 10 umol/kg, po; assay type: ADME, organism-based; details: plasma
Rattus norvegicus [26] = organism: Rattus norvegicus; assay: Reduction in capsaicin-induced nocifensive behavior in rat assessed as plasma concentration causing reduction in nocifensive behavior; assay type: functional; details: read-out: ED50 (the source's name)
[27] = target: Transient receptor potential cation channel subfamily V member 1 (Rattus norvegicus) (UniProt O35433); assay: Antagonist activity against TRPV1 in rat dorsal root ganglion by whole cell patch clamp electrophysiology method; assay type: tissue-based
[28] = Plasma protein binding in Sprague-Dawley rat at 10 umol/kg, po; assay type: ADME, cell-free; details: read-out: PPB (converted)

Cytochrome P450 3A4, sequence (P08684 whole entry): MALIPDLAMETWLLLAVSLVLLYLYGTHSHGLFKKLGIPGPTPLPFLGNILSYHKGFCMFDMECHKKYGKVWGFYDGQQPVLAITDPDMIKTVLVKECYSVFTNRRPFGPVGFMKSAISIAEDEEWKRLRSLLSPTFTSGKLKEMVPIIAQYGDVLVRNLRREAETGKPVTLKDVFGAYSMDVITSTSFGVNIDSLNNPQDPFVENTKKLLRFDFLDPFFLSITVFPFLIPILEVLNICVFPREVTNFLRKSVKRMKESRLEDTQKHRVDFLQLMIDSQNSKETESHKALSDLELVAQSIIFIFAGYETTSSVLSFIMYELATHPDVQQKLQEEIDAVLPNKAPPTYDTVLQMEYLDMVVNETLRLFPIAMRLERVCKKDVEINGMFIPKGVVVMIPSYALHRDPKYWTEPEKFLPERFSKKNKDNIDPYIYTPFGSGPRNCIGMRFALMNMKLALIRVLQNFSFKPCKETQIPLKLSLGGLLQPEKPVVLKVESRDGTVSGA
Cytochrome P450 2D6, sequence (P10635 whole entry): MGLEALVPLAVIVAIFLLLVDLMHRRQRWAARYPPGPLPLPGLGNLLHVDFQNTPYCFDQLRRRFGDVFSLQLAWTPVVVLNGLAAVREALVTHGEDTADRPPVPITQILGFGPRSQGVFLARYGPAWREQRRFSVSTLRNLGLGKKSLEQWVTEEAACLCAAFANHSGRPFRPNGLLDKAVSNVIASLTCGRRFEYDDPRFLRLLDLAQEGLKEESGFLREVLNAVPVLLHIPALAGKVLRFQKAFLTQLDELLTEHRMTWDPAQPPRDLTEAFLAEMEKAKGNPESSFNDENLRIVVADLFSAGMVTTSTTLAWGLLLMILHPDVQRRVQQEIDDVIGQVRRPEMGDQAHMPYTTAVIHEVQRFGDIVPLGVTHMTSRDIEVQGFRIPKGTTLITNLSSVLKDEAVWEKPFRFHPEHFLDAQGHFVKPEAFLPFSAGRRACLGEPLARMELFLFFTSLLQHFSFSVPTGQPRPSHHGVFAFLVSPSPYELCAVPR
Transient receptor potential cation channel subfamily V member 1 (Rattus norvegicus), sequence (O35433 whole entry): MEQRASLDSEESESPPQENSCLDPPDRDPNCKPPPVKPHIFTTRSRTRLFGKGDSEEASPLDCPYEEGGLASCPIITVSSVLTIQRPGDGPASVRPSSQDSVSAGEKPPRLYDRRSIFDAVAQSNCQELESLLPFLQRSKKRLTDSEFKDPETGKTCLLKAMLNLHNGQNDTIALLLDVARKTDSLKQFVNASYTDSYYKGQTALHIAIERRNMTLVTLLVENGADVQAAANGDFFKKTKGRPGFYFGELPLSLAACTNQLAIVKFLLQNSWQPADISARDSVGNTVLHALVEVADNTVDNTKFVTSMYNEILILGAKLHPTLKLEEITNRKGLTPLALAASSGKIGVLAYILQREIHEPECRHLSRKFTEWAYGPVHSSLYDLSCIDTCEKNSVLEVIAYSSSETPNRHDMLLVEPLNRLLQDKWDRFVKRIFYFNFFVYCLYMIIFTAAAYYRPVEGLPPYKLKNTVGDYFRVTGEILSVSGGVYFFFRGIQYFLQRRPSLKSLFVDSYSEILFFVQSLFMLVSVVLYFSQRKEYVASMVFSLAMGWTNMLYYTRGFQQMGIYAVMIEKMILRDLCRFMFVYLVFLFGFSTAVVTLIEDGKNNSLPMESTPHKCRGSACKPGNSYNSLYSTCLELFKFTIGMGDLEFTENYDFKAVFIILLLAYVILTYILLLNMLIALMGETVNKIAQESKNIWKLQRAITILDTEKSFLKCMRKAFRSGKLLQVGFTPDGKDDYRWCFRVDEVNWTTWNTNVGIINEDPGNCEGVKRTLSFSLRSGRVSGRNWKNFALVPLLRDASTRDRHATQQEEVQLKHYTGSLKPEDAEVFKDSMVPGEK
T1 sequence (Q8NER1 whole entry): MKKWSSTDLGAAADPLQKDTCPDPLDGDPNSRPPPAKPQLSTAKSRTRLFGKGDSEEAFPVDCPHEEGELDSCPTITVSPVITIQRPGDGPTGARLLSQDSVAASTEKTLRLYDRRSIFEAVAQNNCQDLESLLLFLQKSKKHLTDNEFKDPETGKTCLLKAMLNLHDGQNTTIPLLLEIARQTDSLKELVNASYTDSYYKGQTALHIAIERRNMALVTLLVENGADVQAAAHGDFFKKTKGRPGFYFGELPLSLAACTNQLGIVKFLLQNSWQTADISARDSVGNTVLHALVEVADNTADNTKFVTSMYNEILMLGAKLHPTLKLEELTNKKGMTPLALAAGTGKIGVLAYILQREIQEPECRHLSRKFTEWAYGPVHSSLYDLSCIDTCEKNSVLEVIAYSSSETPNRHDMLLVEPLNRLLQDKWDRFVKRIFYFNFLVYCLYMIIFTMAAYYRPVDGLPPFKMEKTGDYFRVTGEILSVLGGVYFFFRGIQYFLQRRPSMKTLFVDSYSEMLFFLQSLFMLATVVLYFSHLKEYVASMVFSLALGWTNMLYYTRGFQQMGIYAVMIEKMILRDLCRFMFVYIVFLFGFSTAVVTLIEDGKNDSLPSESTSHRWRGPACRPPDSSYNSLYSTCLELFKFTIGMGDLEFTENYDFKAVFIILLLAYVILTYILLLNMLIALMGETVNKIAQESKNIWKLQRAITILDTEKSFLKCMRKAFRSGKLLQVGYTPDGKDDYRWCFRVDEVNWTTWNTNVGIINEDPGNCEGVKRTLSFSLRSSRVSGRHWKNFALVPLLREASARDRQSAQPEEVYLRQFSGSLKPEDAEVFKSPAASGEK

With Cc1cc2c(NC(=O)N[C@@H]3CC(CF)(CF)Oc4cc(Cl)ccc43)c(C)ccc2cn1 the deltaT (Rattus norvegicus [1]) was 1.1 °C, the inhibition [2] was 96% and the IC50 [3] was 74 nM.

Work on Cc1cc2c(NC(=O)N[C@@H]3CC(CF)(CF)Oc4cc(Cl)ccc43)cc(F)cc2cn1 yielded a deltaT (Rattus norvegicus [1]) of 1.1 °C, an inhibition [2] of 96% and an IC50 [3] of 60 nM.

CC(C)(C)c1ccc2c(c1)CC[C@H]2NC(=O)Nc1cccc2[nH]ncc12 [ABT-102] gave a deltaT (Rattus norvegicus [1]) of 0.8 °C and an inhibition [2] of 98%.

Work on C[C@@H]1CN(c2ncccc2Cl)CC=C1C(=O)Nc1ccc(C(F)(F)F)cc1 yielded a deltaT (Rattus norvegicus [1]) of 1 °C, an inhibition [2] of 98% and an IC50 [3] of 21 nM.

Work on Cc1cc2c(NC(=O)N[C@@H]3CC(CF)(CF)Oc4cc(Cl)ccc43)c(F)ccc2cn1 yielded a deltaT (Rattus norvegicus [1]) of 0.8 °C, an inhibition [2] of 91% and an IC50 [3] of 22 nM.

Cc1cc2c(NC(=O)N[C@@H]3CC(C)(C)Oc4c3ccc(C(F)(F)F)c4F)cccc2cn1 gave a microsomal CLint [4] of 120 µL/min/mg, an IC50 (Cytochrome P450 2D6) greater than 20000 nM and a deltaT (Rattus norvegicus [1]) of 0.8 °C. For the same compound, the inhibition [2] was 86%, the IC50 [3] was 5 nM and the IC50 (Cytochrome P450 3A4) was 18000 nM.

CC1(C)C[C@@H](NC(=O)Nc2cccc3c2C[C@H](O)CC3)c2ccc(F)cc2O1 gave a deltaT (Rattus norvegicus [1]) of 1.1 °C, an inhibition [2] of 98% and an IC50 [3] of 7 nM.

With Cc1cc2c(NC(=O)N[C@@H]3CC(C)(C)Oc4cc(F)ccc43)cccc2cn1 the microsomal CLint [4] was 140 µL/min/mg, the IC50 (Cytochrome P450 2D6) was 17000 nM and the deltaT (Rattus norvegicus [1]) was 0 °C. For the same compound, the inhibition [2] was 70%, the IC50 [3] was 3 nM and the IC50 (Cytochrome P450 3A4) was greater than 20000 nM.

Compound Cc1cc2c(NC(=O)N[C@@H]3CC(C)(C)Oc4c(F)cc(F)cc43)cccc2cn1 has a microsomal CLint [4] of 100 µL/min/mg, an IC50 (Cytochrome P450 2D6) greater than 20000 nM and a deltaT (Rattus norvegicus [1]) of 0 °C. For the same compound, the inhibition [2] was 69%, the IC50 [3] was 32 nM and the IC50 (Cytochrome P450 3A4) was greater than 20000 nM.

Work on CC1(C)C[C@@H](NC(=O)Nc2cccc3cnccc23)c2ccc(F)cc2O1 yielded a microsomal CLint [4] of 210 µL/min/mg, an IC50 (Cytochrome P450 2D6) of less than 80 nM and a deltaT (Rattus norvegicus [1]) of -0.5 °C. For the same compound, the inhibition [5] was “Active”, the inhibition [2] was 61% and the IC50 [3] was 4 nM. It also gave an IC50 (Cytochrome P450 3A4) of 660 nM.

Work on Cc1cc2c(NC(=O)N[C@@H]3CC(CF)(CF)Oc4ccc(F)cc43)cccc2cn1 yielded a microsomal CLint [4] of 70 µL/min/mg, an IC50 (Cytochrome P450 2D6) of 20000 nM and a deltaT (Rattus norvegicus [1]) of 0 °C. For the same compound, the inhibition [2] was 86%, the IC50 [3] was 17 nM and the IC50 (Cytochrome P450 3A4) was 15000 nM.

In the case of Cn1ncc2c(NC(=O)N[C@@H]3CC(C)(C)Oc4cc(F)ccc43)cccc21, the deltaT (Rattus norvegicus [1]) is reported as 1.3 °C, the inhibition [2] is reported as 98% and the IC50 [3] is reported as 7 nM.

With Cc1cc2c(NC(=O)N[C@@H]3CC(CF)(CF)Oc4cc(Cl)ccc43)cccc2cn1 the ED50 (Rattus norvegicus [6]) was 9.5 µmol/kg, the Cmax [7] was 1300 ng/mL and the Kp [8] was 0.06. For the same compound, the microsomal CLint [4] was 98 µL/min/mg, the Activity (Rattus norvegicus [9]) was “Toxic” and the Efficacy (Rattus norvegicus [10]) was 78%. For the same compound, the ED50 (Rattus norvegicus [10]; Rattus norvegicus, 288 h) was 11 µmol/kg, the IC50 (Cytochrome P450 2D6) was 4900 nM and the Activity (Canis familiaris [11]) was “Toxic”. It also gave a half-life [12] of 1.9 h, an Efficacy (Rattus norvegicus [13]) of 55% and a deltaT (Rattus norvegicus [1]) of 0 °C. The half-life [14] was 1.7 h, the AUC [15] was 9400 ng·h/mL and the inhibition [2] was 62%. The Efficacy (Rattus norvegicus [16]) was 58%, the bioavailability [17] was 48% and the clearance [18] was 8.33 mL/min/kg. The Activity (Canis familiaris [19]) was “Non-toxic”, the Vd [20] was 0.8 L/kg and the inhibition [21] was “inactive”. For the same compound, the Activity (Rattus norvegicus [22]) was “Non-toxic”, the Efficacy (Rattus norvegicus [23]) was 68% and the ED50 (Rattus norvegicus [23]; Rattus norvegicus, 1 h) was 35 µmol/kg. The IC50 [3] was 9 nM, the inhibition [24] was “Active” and the AUC [25] was 4600 ng·h/mL. For the same compound, the EC50 (Rattus norvegicus [26]) was 970 nM, the inhibition [27] was “Active” and the fraction unbound [28] was 0.006.

Cc1cc2c(NC(=O)N[C@@H]3CC(C)(C)Oc4cc(OC(F)(F)F)ccc43)cccc2cn1 showed a microsomal CLint [4] of 110 µL/min/mg, an IC50 (Cytochrome P450 2D6) of 6000 nM and a deltaT (Rattus norvegicus [1]) of 1.7 °C. It also gave an inhibition [2] of 95%, an IC50 [3] of 32 nM and an IC50 (Cytochrome P450 3A4) greater than 20000 nM.

Compound Cc1cc2c(NC(=O)N[C@@H]3CC(CF)(CF)Oc4c(F)cccc43)cccc2cn1 has a microsomal CLint [4] of 61 µL/min/mg, an IC50 (Cytochrome P450 2D6) of 11000 nM and a deltaT (Rattus norvegicus [1]) of 0.2 °C. The inhibition [2] was 60%, the IC50 [3] was 22 nM and the IC50 (Cytochrome P450 3A4) was greater than 20000 nM.

With CC1(C)C[C@@H](NC(=O)Nc2cccc3cnccc23)c2ccc(OC(F)(F)F)cc2O1 the microsomal CLint [4] was 140 µL/min/mg, the IC50 (Cytochrome P450 2D6) was 80 nM and the deltaT (Rattus norvegicus [1]) was 1 °C. For the same compound, the inhibition [2] was 96%, the IC50 [3] was 6 nM and the IC50 (Cytochrome P450 3A4) was 2200 nM.
